# Test results taken from patent US12281114B2, “NK3 modulators and uses thereof” (Kallyope, Inc., priority 2023, dated 2025).
# Target: T1, human NK3 (Homo sapiens, UniProt P29371)
# T1 sequence (P29371 1-465): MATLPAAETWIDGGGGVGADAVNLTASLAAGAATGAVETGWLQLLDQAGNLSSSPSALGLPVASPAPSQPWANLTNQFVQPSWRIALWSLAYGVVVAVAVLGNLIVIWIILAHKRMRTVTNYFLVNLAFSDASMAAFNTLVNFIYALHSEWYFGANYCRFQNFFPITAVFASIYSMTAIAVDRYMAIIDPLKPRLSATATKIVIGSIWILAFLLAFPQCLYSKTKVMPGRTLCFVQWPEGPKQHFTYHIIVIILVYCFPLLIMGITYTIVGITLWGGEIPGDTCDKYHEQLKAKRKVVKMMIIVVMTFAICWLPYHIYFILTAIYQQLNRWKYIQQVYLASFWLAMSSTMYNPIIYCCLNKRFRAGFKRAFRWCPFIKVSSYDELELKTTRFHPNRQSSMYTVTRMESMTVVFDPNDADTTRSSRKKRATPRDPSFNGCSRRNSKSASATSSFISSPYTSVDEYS
# Test: FLIPR calcium assay in antagonist mode (NKB EC70 challenge)
# Format: cell-based
# Details: stable cell line expressing human recombinant NK3; antagonist mode vs EC70 of NKB agonist
# Method: Stable Cell Lines: A human recombinant NK3 Tachykinin Receptor stable cell line was purchased from GenScript (Genscript, Cat. #M00201; GenBank Accession Number NM 001059). The cell line was cultured according to manufacturer instructions, using 100 μg/mL Hygromycin B (Invitrogen, Cat. #D2650) for selective pressure. Cells were then collected using 0.05% Trypsin-EDTA (GIBCO, Cat. #25300) and frozen in a freezing media containing 90% FBS (Gibco, Cat. #10099-141) and 10% DMSO (Sigma, Cat. #D2650) at a density of 30×10^6 cells/mL. This bank of assay-ready frozen cells was later used in FLIPR assays to evaluate the potency and efficacy of NK3 antagonist test compounds.
# FLIPR Calcium Assay: The FLIPR assay, used to measure changes in intracellular calcium levels, was performed in a 384-well plate format using the FLIPR Calcium 6 assay kit (Molecular Devices, Cat. #R8190). Assay-ready frozen cells expressing human NK3 (Genscript, Cat. #M00201) were thawed, washed, trypsinized, counted using a ViCell, and plated in cell growth media without Hygromycin at a density of […] (40 μL/well).
# Calculation of NKB EC70: An EC70 concentration of NKB needed to be determined for competition against test antagonists prior to the compound screen. NKB agonist (Phoenix Pharmaceuticals, Cat. #046-26) was diluted in DMSO at 1800 nM (6-fold the final concentration) and serially diluted to generate a 13-point dose response curve (3-fold serial dilution) using an ECHO. 20 μL of 1× stimulation buffer was added using the BRAVO. 10 μL of DMSO was added while on the FLIPR (described as the first addition), then the RFU signal was measured for 10 minutes. The NKB titration was added to the plate, then the RFU signal was measured for 10 minutes (described as the second addition) on the FLIPR. The EC70 concentration was determined by using a four-parameter fit on GraphPad Prism prior to performing the compound screen.
# FLIPR Screen in Antagonist Mode: Test compounds were prepared at 60 μM (6-fold the final concentration) and spotted in 370 nL using the Janus and ECHO. 20 μL of assay buffer was added using the BRAVO. Calcium-sensitive dye was reconstituted in loading buffer (Molecular Devices, Cat. #R8190). Media was removed from the cell plate using a Bluecat Cell Washer, and 40 μL of dye was added to the cell plate using the Apricot. The plate was incubated for 2 hours at 37° C., 5% CO2, then transferred to the FLIPR instrument. 10 μL of compound was added on the FLIPR (described as the first addition), then the RFU signal was measured for 10 minutes. EC70 of NKB agonist was added to the entire plate (described as the second addition), and the RFU signal was measured for 10 minutes on the FLIPR. RFU (relative fluorescence units) signals for first baseline, first peak, second baseline, and second peak were measured using the FLIPR. RFU signal (second peak minus second baseline) for positive (Max, at 10 μM antagonist) and negative (Min, at 0 μM antagonist) controls were used to normalize data and generate values for % Activity. IC50 and efficacy values were determined using a standard curve fitting equation on Dotmatics.
row,SMILES,IC50
1,Cn1cc(-c2cccc(F)c2-c2nc3cc(C(=O)NC4CC5(COC5)C4)ccn3c2Cl)c(F)n1 [Compound 840],0.58 nM
2,COC12CC(NC(=O)c3ccn4c(Cl)c(-c5c(F)cc(F)cc5-c5c[nH]nc5F)nc4c3)(C1)C2 [Compound 848],2 nM
3,Cc1nn(C)cc1-c1ccccc1-c1nc2cc(C(=O)NC[C@@H](C)N3CCNCC3)ccn2c1Cl [Compound 797],4.63 nM
4,"Cn1cc(-c2cc(F)cc(F)c2-c2nc3cc(C(=O)N[C@H]4C[C@](O)(CO)C4)ccn3c2Cl)c(F)n1 [Compound 922, 3-chloro-2-(2,4-difluoro-6-(3-fluoro-1-methyl-1H-pyrazol-4-yl)phenyl)-N-((1s,3s)-3-hydroxy-3-(hydroxymethyl)cyclobutyl)imidazo[1,2-a]pyridine-7-carboxamide]",2.83 nM
5,C[C@]1(O)C[C@H](NC(=O)c2ccn3c(Cl)c(-c4ccccc4-c4cn(C(F)F)nc4Cl)nc3c2)C1 [Compound 819],6.12 nM
6,O=C(NC1CS(=O)(=O)C1)c1ccn2c(Cl)c(-c3c(F)cc(F)cc3-c3c[nH]nc3F)nc2c1 [Compound 830],6.63 nM
7,"Cn1cc(-c2cc(F)cc(F)c2-c2nc3cc(C(=O)N[C@H]4C[C@@](O)(CO)C4)ccn3c2Cl)c(F)n1 [Compound 923, 3-chloro-2-(2,4-difluoro-6-(3-fluoro-1-methyl-1H-pyrazol-4-yl)phenyl)-N-((1r,3r)-3-hydroxy-3-(hydroxymethyl)cyclobutyl)imidazo[1,2-a]pyridine-7-carboxamide]",2.36 nM
8,Cc1nn(C)cc1-c1ccc(F)cc1-c1nc2cc(C(=O)N3C[C@@H]4C[C@H]3C(=O)N4)ccn2c1Cl [Compound 800],8.07 nM
9,"Cn1cc(-c2cccc(F)c2-c2nc3cc(C(=O)N[C@H]4CC5(C4)C[C@](C)(O)C5)ccn3c2Cl)c(F)n1 (stereo partly drawn) [Compound 928, cis 3-chloro-2-(2-fluoro-6-(3-fluoro-1-methyl-1H-pyrazol-4-yl)phenyl)-N-(6-hydroxy-6-methylspiro[3.3]heptan-2-yl)imidazo[1,2-a]pyridine-7-carboxamide]",1.56 nM
10,CC1(O)CCN(C(=O)c2ccn3c(Cl)c(-c4c(F)cc(F)cc4-c4c[nH]nc4F)nc3c2)CC1 [Compound 829],8.27 nM
11,Cc1nn(C)cc1-c1cc(F)ccc1-c1nc2cc(C(=O)NC34CNC(C3)C4)ccn2c1Cl [Compound 822],9.61 nM
12,Cn1cc(-c2ccccc2-c2nc3cc(C(=O)NC4CC5(C4)CS(=O)(=O)C5)ccn3c2Cl)c(F)n1 [Compound 849],0.94 nM
13,"Cn1cc(-c2cccc(F)c2-c2nc3cc(C(=O)N[C@H]4CC[C@](C)(O)CC4)ccn3c2Cl)cn1 [Compound 918, 3-chloro-2-(2-fluoro-6-(1-methyl-1H-pyrazol-4-yl)phenyl)-N-((1r,4r)-4-hydroxy-4-methylcyclohexyl)imidazo[1,2-a]pyridine-7-carboxamide]",3.48 nM
14,"N#CC12CC(NC(=O)c3ccn4c(Cl)c(-c5c(F)cc(F)cc5-c5c[nH]nc5F)nc4c3)(C1)C2 [Compound 789, 3-chloro-N-(3-cyanobicyclo[1.1.1]pentan-1-yl)-2-(2,4-difluoro-6-(3-fluoro-1H-pyrazol-4-yl)phenyl)imidazo[1,2-a]pyridine-7-carboxamide]",1.99 nM
15,Cn1cc(-c2cccc(F)c2-c2nc3cc(C(=O)NC45COC(CO)(C4)C5)ccn3c2Cl)c(F)n1 [Compound 838],5.17 nM
16,Cc1nn(C)cc1-c1ccccc1-c1nc2cc(C(=O)NC[C@H]3C[C@@](C)(O)C3)ccn2c1Cl [Compound 631],0.78 nM
17,Cc1nn(C)cc1-c1cccc(F)c1-c1nc2cc(C(=O)N3C[C@@H]4C[C@H]3C(=O)N4)ccn2c1Cl [Compound 487],2.21 nM
18,Cc1nn(C)cc1-c1ccccc1-c1nc2cc(C(=O)NCCC(C)(C)O)ccn2c1Cl [Compound 459],1.86 nM
19,CO[C@H]1C[C@@H](NC(=O)c2ccn3c(F)c(-c4c(F)cc(F)cc4-c4c[nH]nc4Cl)nc3c2)C1 [Compound 833],2.68 nM
20,Cn1cc(-c2cccc(F)c2-c2nc3cc(C(=O)N[C@@H]4CC[C@@H](CO)OC4)ccn3c2Cl)c(F)n1 [Compound 837],1.01 nM
21,O=C1N[C@H]2C[C@@H]1N(C(=O)c1ccn3c(Cl)c(-c4ccccc4-c4cnn(C(F)(F)F)c4C(F)(F)F)nc3c1)C2 [Compound 816],8.46 nM
22,Cc1nn(C)cc1-c1cccc(F)c1-c1nc2cc(C(=O)NC3CCNCC3)ccn2c1Cl [Compound 705],4.97 nM
23,O=C(NCC1(O)COC1)c1ccn2c(F)c(-c3c(F)cc(F)cc3-c3c[nH]nc3Cl)nc2c1 [Compound 834],6.01 nM
24,Cc1nn(C)cc1-c1ccncc1-c1nc2cc(C(=O)N[C@H]3C[C@](C)(O)C3)ccn2c1Cl [Compound 825],7.72 nM

# Next, values leading:
row,IC50,SMILES
1,4.26 nM,Cc1nn(C)cc1-c1ccccc1-c1nc2cc(C(=O)N[C@H]3CO[C@H]4[C@@H]3OC[C@@H]4O)ccn2c1Cl [Compound 767]
2,131 nM,Cc1c(-c2ccccc2-c2nc3cc(C(=O)N[C@H]4C[C@@](C)(C(=O)O)C4)ccn3c2C)cnn1C [Compound 295]
3,2.19 nM,CCn1ncc(-c2ccccc2-c2nc3cc(C(=O)N[C@@H]4CO[C@H]5[C@@H]4OC[C@H]5O)ccn3c2Cl)c1C [Compound 477]
4,3.19 nM,Cc1nn(C)cc1-c1ccccc1-c1nc2cc(C(=O)N[C@H]3C[C@](C)(O)C3)ccn2c1Cl [Compound 447]
5,6.21 nM,Cc1c(-c2ccccc2-c2cn(C)nc2C(F)(F)F)nc2cc(C(=O)N[C@H]3CO[C@H]4[C@@H]3OC[C@H]4O)ccn12 [Compound 784]
6,2.26 nM,Cc1nn(C)cc1-c1ccccc1-c1nc2cc(C(=O)N[C@@H]3CO[C@H]4[C@@H]3OC[C@@H]4O)ccn2c1Cl [Compound 473]
7,3.34 nM,Cc1nn(C)cc1-c1cccc(F)c1-c1nc2cc(C(=O)N[C@H]3CO[C@H]4[C@@H]3OC[C@H]4O)ccn2c1Cl [Compound 780]
8,2.49 nM,C[C@]1(O)C[C@H](NC(=O)c2ccn3c(Cl)c(-c4ccccc4-c4cn(C(F)(F)F)nc4Cl)nc3c2)C1 [Compound 821]
9,5.74 nM,Cc1n[nH]cc1-c1ccccc1-c1nc2cc(C(=O)N[C@@H]3CO[C@H]4[C@@H]3OC[C@H]4O)ccn2c1Cl [Compound 475]
10,9.16 nM,Cc1nn(C)cc1-c1ccccc1-c1nc2cc(C(=O)N3C[C@@H]4[C@@H](O)[C@@H]4C3)ccn2c1Cl [Compound 647]
11,4.8 nM,Cc1nn(C)cc1-c1cccc(F)c1-c1nc2cc(C(=O)N[C@H]3CO[C@H]4[C@@H]3OC[C@H]4O)ccn2c1C#N [Compound 782]
12,3.21 nM,Cc1c(-c2ccccc2-c2cn(C)nc2C(F)(F)F)nc2cc(C(=O)N[C@@H]3CO[C@H]4[C@@H]3OC[C@H]4O)ccn12 [Compound 783]
13,1.06 nM,Cc1nn(C)cc1-c1ccccc1-c1nc2cc(C(=O)NC[C@H]3C[C@](C)(O)C3)ccn2c1Cl [Compound 629]
14,1.96 nM,Cc1nn(C)cc1-c1ccccc1-c1nc2cc(C(=O)N[C@H]3CO[C@H]4[C@@H]3OC[C@H]4O)ccn2c1Cl [Compound 768]
15,6.6 nM,Cc1c(-c2ccccc2-c2nc3cc(C(=O)N[C@@H]4CO[C@H]5[C@@H]4OC[C@H]5O)ccn3c2Cl)cnn1C [Compound 142]
16,2.63 nM,Cc1nn(C)cc1-c1cccc(F)c1-c1nc2cc(C(=O)N[C@H]3CO[C@H]4[C@@H]3OC[C@@H]4O)ccn2c1Cl [Compound 773]
